# Laboratory results taken from patent publication US10316017B2, “COT modulators and methods of use thereof” (Gilead Sciences, Inc., priority 2015, dated 2019).
# Assays:
# [1] = system: TNFα production in LPS-stimulated human monocytes; test: Cot Monocyte TNFα Cell Based Assay; conditions: Homo sapiens, Monocyte, TNFα in LPS-stimulated human monocytes; read-out: EC50 TNF
# Procedure, shortened: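 TR-FRET read-out of total secreted TNFα, normalized as % control (unstimulated = 0%, LPS-stimulated = 100%). Cells (5,000/well) were exposed to compound 1 h at 37 °C, then to 50 pg/ml LPS for a further 4 h.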
# [2] = molecular target: T1, human Cot catalytic domain (30-397 amino acids) (Homo sapiens, UniProt P41279); test: High Throughput Cot Biochemical Assay (KinEASE TR-FRET); conditions: Cot biochemical HTRF (KinEASE TR-FRET) assay; read-out: IC50 HTRF
# T1 construct: Purified recombinant human Cot catalytic domain (30-397 amino acids) was purchased from Cama Biosciences; purchased Cama Biosciences (so in the source)
# Procedure, shortened: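 TR-FRET readout: Eu-labeled phospho-specific antibody binds XL665-tagged STK3 peptide after phosphorylation by Cot (aa 30-397, 5 nM). Conditions: 400 μM ATP, 1 μM peptide, MOPS pH 7.0 buffer with MgOAc, DTT, BSA, NP-40, glycerol; 0.1% DMSO.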
# T1 sequence (P41279 30-397): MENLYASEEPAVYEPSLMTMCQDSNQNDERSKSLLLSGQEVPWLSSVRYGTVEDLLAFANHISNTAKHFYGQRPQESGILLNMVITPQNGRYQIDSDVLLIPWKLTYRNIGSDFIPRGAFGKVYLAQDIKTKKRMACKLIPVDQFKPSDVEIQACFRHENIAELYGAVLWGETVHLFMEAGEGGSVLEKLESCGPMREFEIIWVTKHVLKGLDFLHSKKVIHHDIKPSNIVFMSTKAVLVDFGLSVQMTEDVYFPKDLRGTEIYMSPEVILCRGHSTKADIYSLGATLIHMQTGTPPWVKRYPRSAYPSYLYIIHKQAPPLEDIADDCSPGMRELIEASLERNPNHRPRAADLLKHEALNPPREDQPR
EC50 [1] [nM],IC50 [2] [nM],SMILES
> 10000,7310,"CC(C)n1cc([C@@H](Nc2cc(Cl)c3ncc(C#N)c(NC4CCN(C)CC4)c3c2)c2ccccc2)nn1 [Example 541, (S)-8-chloro-6-(((1-isopropyl-1H-1,2,3-triazol-4-yl)(phenyl)methyl)amino)-4-((1-methylpiperidin-4-yl)amino)quinoline-3-carbonitrile]"
> 10000,> 10000,"CC(C)n1cc([C@@H](Nc2cc(Cl)c3ncc(C#N)c(NCCCN(C)C)c3c2)c2ccccc2)nn1 [Example 542, (S)-8-chloro-4-((3-(dimethylamino)propyl)amino)-6-(((1-isopropyl-1H-1,2,3-triazol-4-yl)(phenyl)methyl)amino) quinoline-3-carbonitrile]"
51,7,"CC(C)(C)CNc1c(C#N)cnc2c(Cl)cc(N[C@@H](c3ccccc3)c3cn(C4CCN(C(C)(C)C)CC4)nn3)cc12 [Example 543, (S)-6-(((1-(1-(tert-butyl)piperidin-4-yl)-1H-1,2,3-triazol-4-yl)(phenyl)methyl)amino)-8-chloro-4-(neopentylamino)quinoline-3-carbonitrile]"
1190,94,N#Cc1cnc2c(Cl)cc(N[C@@H](c3ccccc3)c3cn(CC4(N5CCCC5)COC4)nn3)cc2c1Nc1ccc(F)c(Cl)c1 [Example 544]
88,3,"N#Cc1cnc2c(Cl)cc(N[C@@H](c3ccccc3)c3cn(CCCN4CCCC4)nn3)cc2c1Nc1ccc(F)c(Cl)c1 [Example 545, (S)-8-chloro-4-((3-chloro-4-fluorophenyl)amino)-6-((phenyl (1-(3-(pyrrolidin-1-yl)propyl)-1H-1,2,3-triazol-4-yl)methyl)amino)quinoline-3-carbonitrile]"
200,8,"N#Cc1cnc2c(Cl)cc(N[C@@H](c3ccccc3)c3cn(CCN4CCCC4)nn3)cc2c1Nc1ccc(F)c(Cl)c1 [Example 546, (S)-8-chloro-4-((3-chloro-4-fluorophenyl)amino)-6-((phenyl (1-(2-(pyrrolidin-1-yl)ethyl)-1H-1,2,3-triazol-4-yl)methyl)amino)quinoline-3-carbonitrile]"
508,2,"CC(C)n1cc([C@@H](Nc2cc(Cl)c3ncc(C#N)c(Nc4ccc(F)c(Cl)c4)c3c2)c2cccc(N3CCCCC3=O)c2)nn1 [Example 547, (S)-8-chloro-4-((3-chloro-4-fluorophenyl)amino)-6-(((1-isopropyl-1H-1,2,3-triazol-4-yl) (3-(2-oxopiperidin-1-yl)phenyl)methyl)amino) quinoline-3-carbonitrile]"
40,1,"CC(C)(C)N1CCC(n2cc([C@@H](Nc3cc(Cl)c4ncc(C#N)c(Nc5ccc(F)c(Cl)c5)c4c3)c3cccc(N4CCCCC4=O)c3)nn2)CC1 [Example 548, (S)-6-(((1-(1-(tert-butyl)piperidin-4-yl)-1H-1,2,3-triazol-4-yl)(3-(2-oxopiperidin-1-yl)phenyl)methyl)amino)-8-chloro-4-((3-chloro-4-fluorophenyl)amino)quinoline-3-carbonitrile]"
650,3,"CC(C)n1cc([C@@H](Nc2cc(Cl)c3ncc(C#N)c(Nc4ccc(F)c(Cl)c4)c3c2)c2cccc(N3CCCC3=O)c2)nn1 [Example 549, (S)-8-chloro-4-((3-chloro-4-fluorophenyl)amino)-6-(((1-isopropyl-1H-1,2,3-triazol-4-yl) (3-(2-oxopyrrolidin-1-yl)phenyl)methyl)amino) quinoline-3-carbonitrile]"
115,1,"CC(C)(C)N1CCC(n2cc([C@@H](Nc3cc(Cl)c4ncc(C#N)c(Nc5ccc(F)c(Cl)c5)c4c3)c3cccc(N4CCCC4=O)c3)nn2)CC1 [Example 550, (S)-6-(((1-(1-(tert-butyl)piperidin-4-yl)-1H-1,2,3-triazol-4-yl)(3-(2-oxopyrrolidin-1-yl)phenyl)methyl)amino)-8-chloro-4-((3-chloro-4-fluorophenyl)amino)quinoline-3-carbonitrile]"
475,5,"CC(C)n1cc([C@@H](Nc2cc(Cl)c3ncc(C#N)c(Nc4ccc(F)c(Cl)c4)c3c2)c2cccc(N3CCC3=O)c2)nn1 [Example 551, (S)-8-chloro-4-((3-chloro-4-fluorophenyl)amino)-6-(((1-isopropyl-1H-1,2,3-triazol-4-yl)(3-(2-oxoazetidin-1-yl)phenyl)methyl)amino)quinoline-3-carbonitrile]"
135,5,"CC(C)(C)N1CCC(n2cc([C@@H](Nc3cc(Cl)c4ncc(C#N)c(Nc5ccc(F)c(Cl)c5)c4c3)c3cccc(N4CCC4=O)c3)nn2)CC1 [Example 552, (S)-6-(((1-(1-(tert-butyl)piperidin-4-yl)-1H-1,2,3-triazol-4-yl)(3-(2-oxoazetidin-1-yl)phenyl)methyl)amino)-8-chloro-4-((3-chloro-4-fluorophenyl)amino)quinoline-3-carbonitrile]"
423,10,"CC(C)[C@@H](Nc1c(C#N)cnc2c(Cl)cc(N[C@@H](c3ccccc3)c3cn(C4CCN(C(C)(C)C)CC4)nn3)cc12)c1ccccc1 [Example 553, 6-(((S)-(1-(1-(tert-butyl)piperidin-4-yl)-1H-1,2,3-triazol-4-yl)(phenyl)methyl)amino)-8-chloro-4-(((R)-2-methyl-1-phenylpropyl)amino)quinoline-3-carbonitrile]"
8250,1300,"COCCNc1c(C#N)cnc2c(Cl)cc(N[C@@H](c3ccccc3)c3cn(C4CCN(C(C)(C)C)CC4)nn3)cc12 [Example 554, (S)-6-(((1-(1-(tert-butyl)piperidin-4-yl)-1H-1,2,3-triazol-4-yl)(phenyl)methyl)amino)-8-chloro-4-((2-methoxyethyl)amino)quinoline-3-carbonitrile]"
537,183,"CC(C)(O)CNc1c(C#N)cnc2c(Cl)cc(N[C@@H](c3ccccc3)c3cn(C4CCN(C(C)(C)C)CC4)nn3)cc12 [Example 555, (S)-6-(((1-(1-(tert-butyl)piperidin-4-yl)-1H-1,2,3-triazol-4-yl)(phenyl)methyl)amino)-8-chloro-4-((2-hydroxy-2-methylpropyl)amino)quinoline-3-carbonitrile]"
> 10000,725,"COC[C@@H](C)Nc1c(C#N)cnc2c(Cl)cc(N[C@@H](c3ccccc3)c3cn(C4CCN(C(C)(C)C)CC4)nn3)cc12 [Example 556, 6-(((S)-(1-(1-(tert-butyl)piperidin-4-yl)-1H-1,2,3-triazol-4-yl)(phenyl)methyl)amino)-8-chloro-4-(((R)-1-methoxypropan-2-yl)amino) quinoline-3-carbonitrile]"
> 10000,999,"COC[C@H](C)Nc1c(C#N)cnc2c(Cl)cc(N[C@@H](c3ccccc3)c3cn(C4CCN(C(C)(C)C)CC4)nn3)cc12 [Example 557, 6-(((S)-(1-(1-(tert-butyl)piperidin-4-yl)-1H-1,2,3-triazol-4-yl)(phenyl)methyl)amino)-8-chloro-4-(((S)-1-methoxypropan-2-yl)amino)quinoline-3-carbonitrile]"
199,11,"CCC[C@@H](Nc1c(C#N)cnc2c(Cl)cc(N[C@@H](c3ccccc3)c3cn(C4CCN(C(C)(C)C)CC4)nn3)cc12)c1ccccc1 [Example 558, 6-(((S)-(1-(1-(tert-butyl)piperidin-4-yl)-1H-1,2,3-triazol-4-yl)(phenyl)methyl)amino)-8-chloro-4-(((R)-1-phenylbutyl)amino)quinoline-3-carbonitrile]"
6050,14,"CC[C@@H](Nc1c(C#N)cnc2c(Cl)cc(N[C@@H](c3cccc(C(=O)N4CC(OC)C4)c3)c3c[nH]nn3)cc12)c1ccccc1 [Example 559, 8-chloro-6-(((S)-(3-(3-methoxyazetidine-1-carbonyl)phenyl)(1H-1,2,3-triazol-4-yl)methyl)amino)-4-(((R)-1-phenylpropyl)amino)quinoline-3-carbonitrile]"
8830,3,CC[C@@H](Nc1c(C#N)cnc2c(Cl)cc(N[C@@H](c3cccc(C(=O)N4CC(O)C4)c3)c3c[nH]nn3)cc12)c1ccccc1 [Example 560]
1150,6,"CC[C@@H](Nc1c(C#N)cnc2c(Cl)cc(N[C@@H](c3cccc(C(=O)N4CC(F)(F)C4)c3)c3c[nH]nn3)cc12)c1ccccc1 [Example 561, 8-chloro-6-(((S)-(3-(3,3-difluoroazetidine-1-carbonyl)phenyl)(1H-1,2,3-triazol-4-yl)methyl)amino)-4-(((R)-1-phenylpropyl)amino)quinoline-3-carbonitrile]"
848,4,"CC[C@@H](Nc1c(C#N)cnc2c(Cl)cc(N[C@@H](c3cccc(C(=O)N4CC(F)C4)c3)c3c[nH]nn3)cc12)c1ccccc1 [Example 562, 8-chloro-6-(((S)-(3-(3-fluoroazetidine-1-carbonyl)phenyl)(1H-1,2,3-triazol-4-yl)methyl)amino)-4-(((R)-1-phenylpropyl)amino)quinoline-3-carbonitrile]"
280,2,"CC[C@@H](Nc1c(C#N)cnc2c(Cl)cc(N[C@@H](c3cccc(N(C)C(C)=O)c3)c3c[nH]nn3)cc12)c1ccccc1 [Example 563, N-(3-((S)-((8-chloro-3-cyano-4-(((R)-1-phenylpropyl)amino)quinolin-6-yl)amino)(1H-1,2,3-triazol-4-yl)methyl)phenyl)-N-methylacetamide]"
